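Where inhibition never reached the appropriate level, the endpoint shown equals the highest concentration tested. Otherwise, values were interpolated linearly from a five-concentration, 48-hour dose response in 96-well plates. TGI is the concentration that stops growth completely.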
Experiments:
Test in all cases: growth of human tumour cells (NCI), 48 h
BT-549 breast = system: BT-549 breast
NCI-H226 lung = system: NCI-H226 lung
MOLT-4 leukemia = system: MOLT-4 leukemia
HCC-2998 colon = system: HCC-2998 colon
NCI-H522 lung = system: NCI-H522 lung
SF-295 CNS = system: SF-295 CNS
OVCAR-8 ovarian = system: OVCAR-8 ovarian
SK-MEL-2 melanoma = system: SK-MEL-2 melanoma
KM12 colon = system: KM12 colon
DU-145 prostate = system: DU-145 prostate
OVCAR-3 ovarian = system: OVCAR-3 ovarian
SF-539 CNS = system: SF-539 CNS
786-0 renal = system: 786-0 renal
A549 NSCLC = system: A549 NSCLC
MDA-MB-435 = system: MDA-MB-435
HOP-92 NSCLC = system: HOP-92 NSCLC
HCT-15 colon = system: HCT-15 colon
OVCAR-4 ovarian = system: OVCAR-4 ovarian
PC-3 prostate = system: PC-3 prostate
HL-60(TB) leukemia = system: HL-60(TB) leukemia
COLO 205 colon = system: COLO 205 colon
RPMI-8226 leukemia = system: RPMI-8226 leukemia
UACC-257 melanoma = system: UACC-257 melanoma
HCT-116 colon = system: HCT-116 colon
HS 578T breast = system: HS 578T breast
MDA-N = system: MDA-N
UACC-62 melanoma = system: UACC-62 melanoma
TK-10 renal = system: TK-10 renal
CCRF-CEM leukemia = system: CCRF-CEM leukemia
CAKI-1 renal = system: CAKI-1 renal
M14 melanoma = system: M14 melanoma
NCI/ADR-RES ovarian = system: NCI/ADR-RES ovarian
ACHN renal = system: ACHN renal
MALME-3M melanoma = system: MALME-3M melanoma
SW-620 colon = system: SW-620 colon
UO-31 renal = system: UO-31 renal
T-47D breast = system: T-47D breast
MDA-MB-231 breast = system: MDA-MB-231 breast
NCI-H23 lung = system: NCI-H23 lung
OVCAR-5 ovarian = system: OVCAR-5 ovarian
SF-268 CNS = system: SF-268 CNS
K-562 leukemia = system: K-562 leukemia
SR leukemia = system: SR leukemia
SK-MEL-28 melanoma = system: SK-MEL-28 melanoma
SK-MEL-5 melanoma = system: SK-MEL-5 melanoma
SNB-19 CNS = system: SNB-19 CNS
NCI-H460 lung = system: NCI-H460 lung
HT29 colon = system: HT29 colon
SNB-75 CNS = system: SNB-75 CNS
A498 renal = system: A498 renal
MCF7 breast = system: MCF7 breast
SN12C renal = system: SN12C renal
LOX IMVI melanoma = system: LOX IMVI melanoma
EKVX NSCLC = system: EKVX NSCLC
U251 CNS = system: U251 CNS
SK-OV-3 ovarian = system: SK-OV-3 ovarian
HOP-62 NSCLC = system: HOP-62 NSCLC
IGROV1 ovarian = system: IGROV1 ovarian
RXF 393 renal = system: RXF 393 renal

Measured: TGI

O=C(O)COc1cc(-c2ccccc2)nc2cc(F)ccc12
> 100 µM: BT-549 breast | NCI-H226 lung | MOLT-4 leukemia | HCC-2998 colon | NCI-H522 lung | SF-295 CNS | OVCAR-8 ovarian | SK-MEL-2 melanoma | KM12 colon | DU-145 prostate | OVCAR-3 ovarian | SF-539 CNS | 786-0 renal | A549 NSCLC | MDA-MB-435 | HOP-92 NSCLC | HCT-15 colon | OVCAR-4 ovarian | PC-3 prostate | HL-60(TB) leukemia | COLO 205 colon | RPMI-8226 leukemia | UACC-257 melanoma | HCT-116 colon | HS 578T breast | MDA-N | UACC-62 melanoma | TK-10 renal | CCRF-CEM leukemia | CAKI-1 renal | M14 melanoma | NCI/ADR-RES ovarian | ACHN renal | MALME-3M melanoma | SW-620 colon | UO-31 renal | T-47D breast | MDA-MB-231 breast | NCI-H23 lung | OVCAR-5 ovarian | SF-268 CNS | K-562 leukemia | SR leukemia | SK-MEL-28 melanoma | SK-MEL-5 melanoma | SNB-19 CNS | NCI-H460 lung | HT29 colon | SNB-75 CNS | A498 renal | MCF7 breast | SN12C renal | LOX IMVI melanoma | EKVX NSCLC | U251 CNS | SK-OV-3 ovarian | HOP-62 NSCLC | IGROV1 ovarian

COc1cccc(N=N/C(=N\NC(=O)c2ccc(C)cc2)c2ccc(N(CCC#N)CCC#N)cc2C)c1
> 100 µM: BT-549 breast | NCI-H226 lung | MOLT-4 leukemia | HCC-2998 colon | SF-295 CNS | OVCAR-8 ovarian | SK-MEL-2 melanoma | KM12 colon | DU-145 prostate | OVCAR-3 ovarian | SF-539 CNS | 786-0 renal | A549 NSCLC | MDA-MB-435 | HOP-92 NSCLC | HCT-15 colon | OVCAR-4 ovarian | PC-3 prostate | COLO 205 colon | RPMI-8226 leukemia | UACC-257 melanoma | HCT-116 colon | RXF 393 renal | HS 578T breast | MDA-N | TK-10 renal | CAKI-1 renal | M14 melanoma | NCI/ADR-RES ovarian | ACHN renal | MALME-3M melanoma | SW-620 colon | UO-31 renal | T-47D breast | MDA-MB-231 breast | NCI-H23 lung | OVCAR-5 ovarian | SF-268 CNS | K-562 leukemia | SR leukemia | SK-MEL-28 melanoma | SK-MEL-5 melanoma | SNB-19 CNS | NCI-H460 lung | HT29 colon | SNB-75 CNS | A498 renal | MCF7 breast | SN12C renal | LOX IMVI melanoma | EKVX NSCLC | U251 CNS | SK-OV-3 ovarian | HOP-62 NSCLC | IGROV1 ovarian
